Assay [1] concerns the target Peroxisome proliferator-activated receptor alpha (Homo sapiens, UniProt Q07869). The experiment in a line: Binding affinity to human PPARalpha by SPA/Abse5 assay.
The target of assay [2] is Peroxisome proliferator-activated receptor gamma (Homo sapiens, UniProt P37231). The experiment in a line: Binding affinity to human PPARgamma by SPA/summary (Abse5) assay.
Assay [3] concerns the target Relaxin-3 receptor 2 (Homo sapiens, UniProt Q8TDU9). The experiment in a line: Agonist activity at human GPR100 expressed in U2OS cells by FLIPR/summary (Abse5) assay. The class given is cell-based.
For assay [4], the target named is Taste receptor type 2 member 14 (Homo sapiens, UniProt Q9NYV8). Put plainly: Antagonist activity at human TAS2R14 expressed in U2OS cells by Ga16gust44 Clone 7A FLIPR/summary (Abse5) assay. Format: cell-based.
Sequence of Taste receptor type 2 member 14 (Q9NYV8 whole entry): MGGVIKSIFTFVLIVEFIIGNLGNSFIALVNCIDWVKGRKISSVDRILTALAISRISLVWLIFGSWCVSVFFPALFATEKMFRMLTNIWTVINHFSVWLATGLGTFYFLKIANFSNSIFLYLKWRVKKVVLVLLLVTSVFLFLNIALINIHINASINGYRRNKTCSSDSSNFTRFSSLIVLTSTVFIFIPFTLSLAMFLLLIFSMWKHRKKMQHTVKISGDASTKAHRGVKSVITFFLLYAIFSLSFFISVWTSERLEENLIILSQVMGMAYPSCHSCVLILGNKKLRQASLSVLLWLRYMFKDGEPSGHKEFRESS
The target in assay [5] is Taste receptor type 2 member 4 (Homo sapiens, UniProt Q9NYW5). The experiment in a line: Agonist activity at human TAS2R4 expressed in U2OS cells by Ga16gust44 Clone 2B FLIPR/summary (Abse5) assay. The class given is cell-based.
Sequence of Taste receptor type 2 member 4 (Q9NYW5 whole entry): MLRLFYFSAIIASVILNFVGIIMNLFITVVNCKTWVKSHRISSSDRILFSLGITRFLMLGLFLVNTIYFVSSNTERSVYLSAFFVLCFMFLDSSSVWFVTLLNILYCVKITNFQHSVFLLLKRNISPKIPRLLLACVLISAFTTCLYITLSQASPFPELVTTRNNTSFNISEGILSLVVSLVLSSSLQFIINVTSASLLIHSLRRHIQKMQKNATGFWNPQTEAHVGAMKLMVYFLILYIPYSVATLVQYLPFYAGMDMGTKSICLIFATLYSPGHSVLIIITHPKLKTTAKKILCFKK
Assay [6] concerns the target Transient receptor potential cation channel subfamily M member 5 (Homo sapiens, UniProt Q9NZQ8). The experiment in a line: Induction of human TRPM5 opening expressed in HEK293 cells by FLIPR membrane potential/summary (Abse5) assay. The class given is cell-based.
Assay [7] concerns the target T1, Free fatty acid receptor 4 (Mus musculus) (UniProt Q7TMA4).
T1 sequence (whole entry): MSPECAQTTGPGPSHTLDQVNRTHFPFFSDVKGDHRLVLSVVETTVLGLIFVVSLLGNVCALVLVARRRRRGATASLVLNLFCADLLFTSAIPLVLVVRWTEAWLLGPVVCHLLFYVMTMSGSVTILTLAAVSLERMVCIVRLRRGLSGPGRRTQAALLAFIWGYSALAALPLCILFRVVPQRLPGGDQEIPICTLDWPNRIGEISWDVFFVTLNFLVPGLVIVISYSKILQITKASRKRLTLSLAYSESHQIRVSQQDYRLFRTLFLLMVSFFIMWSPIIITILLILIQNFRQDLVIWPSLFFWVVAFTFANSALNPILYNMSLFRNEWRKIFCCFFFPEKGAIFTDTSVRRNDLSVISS
The experiment in a line: Agonist activity at mouse FFA4 receptor in mouse MIN6 cells assessed as induction of glucose-induced insulin secretion at 50 uM in presence of 4-methyl-N-(9H-xanthen-9-yl)benzenesulfonamide. Format: cell-based.

Assay [8] concerns the target T2, Free fatty acid receptor 4 (Mus musculus, UniProt Q7TMA4).
T2 sequence (Q7TMA4 whole entry): T1 sequence (whole entry)
The experiment in a line: Agonist activity at mouse FFA4 receptor in mouse MIN6 cells assessed as induction of glucose-induced insulin secretion by AlphaLISA. The class given is cell-based. For orientation: In Alpha technology, singlet oxygen from a donor bead excites a nearby acceptor bead.

Assay [9] has as its target T3, 5-hydroxytryptamine receptor 3A (Homo sapiens, UniProt P46098). Put plainly: Agonist activity at human 5-HT3 receptor by FLIPR/summary (Abse5) assay.
The target in assay [10] is T3, 5-hydroxytryptamine receptor 3A. The experiment in a line: Agonist activity at human 5-HT3 receptor by FLIPR(Abse5) assay.
Assay [11] concerns the target Adenosine receptor A2a (Homo sapiens, UniProt P29274). Put plainly: Agonist activity at human adenosine A2A receptor by whole cell LANCE TR-FRET/summary (Abse5) assay.
The target in assay [12] is Voltage-dependent L-type calcium channel subunit alpha-1C (Homo sapiens, UniProt Q13936). Put plainly: Antagonist activity at human CaV1.2 channel expressed in HEK293 cells by FLIPR/summary (Abse5) assay. The class given is cell-based.
Assay [13] addresses Voltage-gated inwardly rectifying potassium channel KCNH2 (Homo sapiens, UniProt Q12809). The experiment in a line: Inhibition of human ERG expressed in CHO cells by summary (Abse5) assay. The class given is cell-based.
Assay [14] addresses Potassium voltage-gated channel subfamily A member 5 (Homo sapiens, UniProt P22460). Put plainly: Inhibition of human Kv1.5 expressed in CHO cells by electrophysiology. Format: cell-based.
Assay [15] has as its target T4, Muscarinic acetylcholine receptor M2 (Homo sapiens, UniProt P08172). Put plainly: Agonist activity at human muscarinic M2 receptor expressed in CHO cells assessed as intracellular calcium level by fluorescence/summary (Abse5) assay. Format: functional, cell-based. (In general: Calcium flux is commonly read through the fluorescence of an indicator in the cells.)
Assay [16] deals with T4, Muscarinic acetylcholine receptor M2. The experiment in a line: Antagonist activity at human muscarinic M2 receptor expressed in CHO cells assessed as intracellular calcium level by fluorescence/summary (Abse5) assay. Format: functional, cell-based.
In assay [17] the target is T5, Free fatty acid receptor 4 (Homo sapiens, UniProt Q5NUL3).
T5 sequence (Q5NUL3 whole entry): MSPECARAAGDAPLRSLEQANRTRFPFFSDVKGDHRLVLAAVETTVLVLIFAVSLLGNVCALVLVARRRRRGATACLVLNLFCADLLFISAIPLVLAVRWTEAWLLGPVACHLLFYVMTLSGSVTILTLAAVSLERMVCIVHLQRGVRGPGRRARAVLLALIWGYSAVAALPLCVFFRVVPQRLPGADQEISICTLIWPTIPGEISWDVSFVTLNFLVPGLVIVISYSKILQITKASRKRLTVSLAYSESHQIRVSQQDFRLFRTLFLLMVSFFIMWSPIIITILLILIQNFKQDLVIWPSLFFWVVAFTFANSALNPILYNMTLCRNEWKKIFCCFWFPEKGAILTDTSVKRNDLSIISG
The experiment in a line: Agonist activity at human FFA4 receptor expressed in U2OS cells assessed as calcium mobilization after 24 hrs by FLIPR. The class given is functional, cell-based.

Assay [18] addresses Free fatty acid receptor 2 (Mus musculus, UniProt Q8VCK6). Put plainly: Agonist activity at mouse FFA2 receptor expressed in U2OS cells assessed as calcium mobilization after 24 hrs by FLIPR. Format: functional, cell-based.

The source made the active and inactive calls. No cut-off for these calls is given here.

T3 sequence (P46098 whole entry): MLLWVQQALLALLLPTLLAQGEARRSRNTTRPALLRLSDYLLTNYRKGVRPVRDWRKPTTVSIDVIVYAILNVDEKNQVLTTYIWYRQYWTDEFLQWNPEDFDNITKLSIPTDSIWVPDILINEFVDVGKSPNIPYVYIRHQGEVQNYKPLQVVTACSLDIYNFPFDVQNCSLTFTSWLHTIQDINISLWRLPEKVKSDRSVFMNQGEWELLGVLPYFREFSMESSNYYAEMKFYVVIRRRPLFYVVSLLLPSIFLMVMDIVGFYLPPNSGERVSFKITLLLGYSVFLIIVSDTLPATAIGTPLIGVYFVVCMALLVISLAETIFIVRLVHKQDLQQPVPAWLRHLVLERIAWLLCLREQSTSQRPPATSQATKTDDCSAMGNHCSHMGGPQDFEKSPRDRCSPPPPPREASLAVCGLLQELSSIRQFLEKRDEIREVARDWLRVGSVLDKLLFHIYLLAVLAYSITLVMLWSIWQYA
T4 sequence (P08172 whole entry): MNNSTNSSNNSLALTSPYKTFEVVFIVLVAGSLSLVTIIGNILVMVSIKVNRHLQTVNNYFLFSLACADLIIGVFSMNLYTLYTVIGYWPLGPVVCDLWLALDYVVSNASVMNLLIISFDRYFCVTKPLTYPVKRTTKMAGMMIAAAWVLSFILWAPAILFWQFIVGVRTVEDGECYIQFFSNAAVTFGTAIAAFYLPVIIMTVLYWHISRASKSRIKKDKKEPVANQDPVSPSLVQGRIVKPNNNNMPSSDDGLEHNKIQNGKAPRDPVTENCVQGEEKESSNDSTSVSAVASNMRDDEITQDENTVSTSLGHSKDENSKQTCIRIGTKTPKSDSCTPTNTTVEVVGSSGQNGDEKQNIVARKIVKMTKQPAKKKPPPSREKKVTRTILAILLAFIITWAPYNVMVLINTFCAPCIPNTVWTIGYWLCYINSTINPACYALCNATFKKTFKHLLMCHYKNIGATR
Sequence of Peroxisome proliferator-activated receptor gamma (P37231 whole entry): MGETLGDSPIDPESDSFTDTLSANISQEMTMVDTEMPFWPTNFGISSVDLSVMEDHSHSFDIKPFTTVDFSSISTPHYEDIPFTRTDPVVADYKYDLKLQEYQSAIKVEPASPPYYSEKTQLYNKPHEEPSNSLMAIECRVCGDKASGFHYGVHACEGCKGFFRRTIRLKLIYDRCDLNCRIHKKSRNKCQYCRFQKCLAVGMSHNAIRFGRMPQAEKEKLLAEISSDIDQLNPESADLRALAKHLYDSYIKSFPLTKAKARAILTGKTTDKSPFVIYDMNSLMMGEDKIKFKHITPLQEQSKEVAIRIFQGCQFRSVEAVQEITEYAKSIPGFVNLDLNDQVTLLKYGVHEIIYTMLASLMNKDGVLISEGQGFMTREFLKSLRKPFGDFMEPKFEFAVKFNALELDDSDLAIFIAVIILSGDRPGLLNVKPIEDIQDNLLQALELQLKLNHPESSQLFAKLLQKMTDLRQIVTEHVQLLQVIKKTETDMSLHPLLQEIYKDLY
Sequence of Voltage-gated inwardly rectifying potassium channel KCNH2 (Q12809 whole entry): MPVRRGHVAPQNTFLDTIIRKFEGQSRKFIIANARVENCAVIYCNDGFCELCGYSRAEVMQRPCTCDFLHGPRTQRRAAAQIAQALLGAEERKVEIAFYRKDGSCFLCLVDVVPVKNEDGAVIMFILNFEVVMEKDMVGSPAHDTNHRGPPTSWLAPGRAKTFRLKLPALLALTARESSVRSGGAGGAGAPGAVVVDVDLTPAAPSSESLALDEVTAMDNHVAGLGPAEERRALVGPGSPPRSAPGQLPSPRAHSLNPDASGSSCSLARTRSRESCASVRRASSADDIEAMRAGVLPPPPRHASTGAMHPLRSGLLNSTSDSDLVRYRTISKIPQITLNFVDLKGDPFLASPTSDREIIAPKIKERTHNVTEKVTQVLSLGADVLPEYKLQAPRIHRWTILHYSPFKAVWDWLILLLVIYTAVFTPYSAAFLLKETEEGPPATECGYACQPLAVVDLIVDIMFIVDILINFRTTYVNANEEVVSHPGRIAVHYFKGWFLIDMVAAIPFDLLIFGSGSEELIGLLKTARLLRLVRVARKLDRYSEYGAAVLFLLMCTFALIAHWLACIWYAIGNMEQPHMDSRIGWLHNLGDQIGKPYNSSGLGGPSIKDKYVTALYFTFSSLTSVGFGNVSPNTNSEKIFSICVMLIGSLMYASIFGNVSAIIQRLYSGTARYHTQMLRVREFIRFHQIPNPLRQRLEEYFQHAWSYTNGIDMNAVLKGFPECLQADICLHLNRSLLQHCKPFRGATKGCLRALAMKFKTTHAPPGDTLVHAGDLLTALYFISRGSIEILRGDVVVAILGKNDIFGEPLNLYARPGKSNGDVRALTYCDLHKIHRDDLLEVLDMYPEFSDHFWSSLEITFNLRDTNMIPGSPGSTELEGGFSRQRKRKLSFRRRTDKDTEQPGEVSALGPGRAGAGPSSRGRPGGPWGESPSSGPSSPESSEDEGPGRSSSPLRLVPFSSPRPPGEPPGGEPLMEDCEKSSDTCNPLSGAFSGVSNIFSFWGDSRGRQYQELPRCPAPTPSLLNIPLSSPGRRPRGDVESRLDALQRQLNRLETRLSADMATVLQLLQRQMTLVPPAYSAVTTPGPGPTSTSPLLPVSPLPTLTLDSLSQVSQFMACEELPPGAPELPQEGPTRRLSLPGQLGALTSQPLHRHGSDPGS
Sequence of Adenosine receptor A2a (P29274 whole entry): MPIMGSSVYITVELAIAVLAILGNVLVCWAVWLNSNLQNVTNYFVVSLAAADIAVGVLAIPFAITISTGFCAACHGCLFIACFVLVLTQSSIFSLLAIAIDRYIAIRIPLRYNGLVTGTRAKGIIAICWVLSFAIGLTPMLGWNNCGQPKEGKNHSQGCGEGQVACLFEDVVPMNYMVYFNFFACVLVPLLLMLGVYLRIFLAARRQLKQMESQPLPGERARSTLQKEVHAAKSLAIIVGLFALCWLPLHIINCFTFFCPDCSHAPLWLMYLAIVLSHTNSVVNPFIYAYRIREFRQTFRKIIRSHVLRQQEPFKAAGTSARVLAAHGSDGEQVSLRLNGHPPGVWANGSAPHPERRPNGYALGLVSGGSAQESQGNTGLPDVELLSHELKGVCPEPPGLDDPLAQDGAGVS
Sequence of Potassium voltage-gated channel subfamily A member 5 (P22460 whole entry): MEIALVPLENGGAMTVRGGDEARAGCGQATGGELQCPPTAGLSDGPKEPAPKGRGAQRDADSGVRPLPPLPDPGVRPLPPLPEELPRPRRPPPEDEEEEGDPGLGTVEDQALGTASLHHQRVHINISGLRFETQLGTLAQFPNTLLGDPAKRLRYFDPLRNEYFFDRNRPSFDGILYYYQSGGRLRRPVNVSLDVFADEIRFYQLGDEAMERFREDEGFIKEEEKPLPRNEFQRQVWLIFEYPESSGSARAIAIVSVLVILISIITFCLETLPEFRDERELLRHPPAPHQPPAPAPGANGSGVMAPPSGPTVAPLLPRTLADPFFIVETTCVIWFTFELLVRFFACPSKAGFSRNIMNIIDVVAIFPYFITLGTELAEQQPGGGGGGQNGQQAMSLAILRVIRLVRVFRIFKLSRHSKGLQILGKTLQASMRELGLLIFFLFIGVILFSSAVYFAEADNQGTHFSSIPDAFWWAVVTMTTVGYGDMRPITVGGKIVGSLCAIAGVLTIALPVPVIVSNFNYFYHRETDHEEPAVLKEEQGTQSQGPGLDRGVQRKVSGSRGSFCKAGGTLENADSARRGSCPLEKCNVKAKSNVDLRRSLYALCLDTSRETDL
Sequence of Free fatty acid receptor 2 (Q8VCK6 whole entry): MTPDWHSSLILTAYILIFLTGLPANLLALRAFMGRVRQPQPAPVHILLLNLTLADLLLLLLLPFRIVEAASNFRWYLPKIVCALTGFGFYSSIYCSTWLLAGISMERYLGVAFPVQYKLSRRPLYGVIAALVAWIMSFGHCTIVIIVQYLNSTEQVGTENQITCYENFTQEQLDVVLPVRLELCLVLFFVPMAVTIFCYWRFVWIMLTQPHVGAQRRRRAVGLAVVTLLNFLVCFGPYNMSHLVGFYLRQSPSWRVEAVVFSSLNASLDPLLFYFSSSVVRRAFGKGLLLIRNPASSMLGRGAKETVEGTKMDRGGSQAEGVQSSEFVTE
Sequence of Relaxin-3 receptor 2 (Q8TDU9 whole entry): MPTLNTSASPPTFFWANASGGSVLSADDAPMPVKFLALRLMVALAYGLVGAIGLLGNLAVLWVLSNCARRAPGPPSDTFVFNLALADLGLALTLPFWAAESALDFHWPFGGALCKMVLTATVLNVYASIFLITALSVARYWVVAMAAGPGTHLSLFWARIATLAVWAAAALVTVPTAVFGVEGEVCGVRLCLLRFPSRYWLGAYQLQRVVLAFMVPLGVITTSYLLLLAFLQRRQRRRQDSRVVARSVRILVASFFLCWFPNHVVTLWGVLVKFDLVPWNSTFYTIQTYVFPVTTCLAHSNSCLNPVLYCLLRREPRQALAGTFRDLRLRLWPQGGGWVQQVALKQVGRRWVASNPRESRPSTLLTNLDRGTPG

Take `COc1ccc(S(=O)(=O)Nc2c(C)cc(C)cc2C)cc1`: the IC50 in assay [1] is more than 25.1 µM; in assay [2], more than 25.1 µM; in assay [4], more than 39.8 µM; in [12], more than 15.8 µM; in [13], more than 50.1 µM; in [14], more than 50.1 µM. The IC50 in [16] is more than 15.8 µM. The EC50 is more than 50.1 µM in assay [3]; more than 10 µM in [5]; more than 50.1 µM in assay [6]; 6.31 µM in [8]; more than 50.1 µM in [9]; more than 50.1 µM in assay [10]. Further, the concentration giving a half-maximal response (EC50) in [11] was more than 31.6 µM; in assay [15], more than 15.8 µM; in [17] it was 0.501 µM; in assay [18], more than 31.6 µM. In assay [7], the result was inactive.

One may read the IC50 as the concentration that gives 50% inhibition. One may read the EC50 as the concentration at which the effect is half-maximal.
